Test results taken from patent US20150038430A1, “THERAPEUTIC PEPTIDOMIMETIC MACROCYCLES” (AILERON Therapeutics, Inc., priority 2008, published 2015).
Numbered stars: 1 amine (or outer) side, 2 acyl side, 3 side chain; on linkers, the order of the positions; unused ones are H or OH. Bridge positions count the residues as written; N and C are the ends. Square brackets hold non-standard residues; d marks the D form. Peptide text beside a SMILES is read from it. ξ: configuration not given here. ξαMeNle(6-ylidene) = CC(CCCC=[*:3])(N[*:1])C(=O)[*:2]; Nle = CCCC[C@H](N)C(=O)O

Experiments:
activated hPBLs = assay: BrdU cell proliferation assay; assay type: cell-based, human; details: hPBLs activated by PMA+ionomycin+LPS; 5 or 20 μM, 48 hrs; compared with 1 μM Rapamycin
Method: […] 1 μM Rapamycin was used as a positive control to inhibit BrdU incorporation. BrdU incorporation was assayed by ELISA according to manufacturer's instructions (Roche, catalog number 11444611001).

[1] = tested on: SEMK2 human leukemia xenograft; assay: SEMK2 human leukemia xenograft model; assay type: in vivo, NOD-SCID mice; details: daily tail vein injection, 3, 10 or 30 mg/Kg/day
Method: To determine the anti-oncogenic activity of peptidomimetic macrocycles of the invention in vivo, the compounds are, for example, given alone (IP, IV, SC, PO, by inhalation or nasal routes) or in combination with sub-optimal doses of relevant chemotherapy (e.g., cyclophosphamide, doxorubicin, etoposide). In one example, 5×10^6 SEMK2 cells (established from the bone marrow of a patient with acute lymphoblastic leukemia) that stably express luciferase are injected by tail vein in NOD-SCID, SCID-beige or NOD.IL2rg KO mice 3 hrs after they have been subjected to total body irradiation. Non-radiated mice may also be used for these studies. If left untreated, this form of leukemia is fatal in 3 weeks in this model. The leukemia is readily monitored, for example, by injecting the mice with D-luciferin (60 mg/kg) and imaging the anesthetized animals (e.g., Xenogen In Vivo Imaging System, Caliper Life Sciences, Hopkinton, Mass.). Total body bioluminescence is quantified by integration of photonic flux (photons/sec) by Living Image Software (Caliper Life Sciences, Hopkinton, Mass.). […] Optionally, the mice are imaged throughout the experiment every other day and survival monitored daily for the duration of the experiment. […]

Compound: CCCC[C@H](NC(=O)C1(C)CCCC=CCCCC(C)(NC(=O)[C@H](C)NC(=O)[C@H](CC(C)C)NC(=O)[C@H](Cc2c[nH]cn2)NC(=O)[C@H](CCCNC(=N)N)NC(=O)[C@H](C)NC(=O)[C@@H](NC(=O)[C@H](CC(N)=O)NC(=O)[C@H](CCCNC(=N)N)NC(=O)[C@@H](NC(=O)[C@@H](NC(=O)[C@H](CC(=O)O)NC(C)=O)[C@@H](C)CC)[C@@H](C)CC)[C@@H](C)CC)C(=O)N[C@@H](C(C)C)C(=O)NCC(=O)N[C@@H](CC(=O)O)C(=O)N1)C(=O)N[C@@H](CC(=O)O)C(=O)N[C@@H](CCCNC(=N)N)C(=O)N[C@@H](CO)C(=O)N[C@H](C(N)=O)[C@@H](C)CC (some centres unmarked) [SP-1] (Ac-DIIRNIARHLA[ξαMeNle(6-ylidene)]VGD[ξαMeNle(6-ylidene)][Nle]DRSI-NH2; staple 12-16)
- blocking the proliferation of activated hPBLs (BrdU incorporation) (activated hPBLs): as effective as rapamycin
- tumor burden / tumor progression (total body bioluminescence) [1]: decreases tumor burden
